Measured values: EP4725957A1, “GROUP OF CYCLIC ALKALINE LIPOPEPTIDE COMPOUNDS, AND PREPARATION METHOD THEREFOR AND USE THEREOF” (Institute of Medicinal Biotechnology, Chinese Academy of …, priority 2023, dated 2024)
≈ marks a conversion by molar mass, not a printed value. Bridge positions count the residues as written; N and C are the ends. Square brackets hold non-standard residues; d marks the D form. Peptide text beside a SMILES is read from it. * marks the point of attachment. Heptanoyl(6-Me) = CC(C)CCCCC(=O)*; dOrn = NCCC[C@@H](N)C(=O)O; Nonanoyl = CCCCCCCCC(=O)*; X1 = CC[C@H](C)CCCCC(=O)*; Heptanoyl = CCCCCCC(=O)*; Orn = NCCC[C@H](N)C(=O)O; dDap = NC[C@@H](N)C(=O)O; Dab = NCC[C@H](N)C(=O)O

Assays:
Format in all cases: cell-based
[1] = Nephrotoxicity assay: in vitro cytotoxicity of HK-2 cells by CCK-8 assay; details: human, HK-2 cells (human renal), 72 h incubation with drug-containing medium
Summary of the method: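 Compounds in sterile water, diluted to final 500, 250, 200, 100, 50, 25 and 12.5 µg/mL, were applied for 72 h to human HK-2 kidney cells. Absorbance at 450 nm after 3 h CCK-8 gave viability against untreated wells, and IC50 came from logarithmic regression; three replicates.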

[2] = system: Escherichia coli ATCC BAA-2340 (KPC); details: ATCC BAA-2340
Summary of the method: (§1)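 Per CLSI, bacteria at a final (2-4) × 10^5 CFU/mL were exposed in Mueller-Hinton broth to two-fold compound series (final 64 down to 0.03 mg/L). MIC read after 16-20 h at 35-37°C in sealed plates.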

[3] = system: Klebsiella pneumoniae ATCC BAA-1705 (KPC); details: ATCC BAA-1705
Summary of the method: as §1

[4] = system: Acinetobacter baumannii ABA19-1; details: ABA19-1
Summary of the method: as §1

[5] = system: Klebsiella pneumoniae KPN+19-15; details: KPN+19-15
Summary of the method: as §1

[6] = system: Escherichia coli ATCC BAA-2523; details: ATCC BAA-2523
Summary of the method: as §1

[7] = system: Pseudomonas aeruginosa ATCC 27853; details: ATCC 27853
Summary of the method: as §1

[8] = system: Acinetobacter baumannii NCTC 13304 (OXA-27); details: NCTC 13304
Summary of the method: as §1

[9] = system: Pseudomonas aeruginosa PAE19-3; details: PAE19-3
Summary of the method: as §1

Compound: CC[C@H](C)CCCCC(=O)N[C@@H](CCN)C(=O)N[C@H](C(=O)N[C@H](CN)C(=O)N[C@H]1CCNC(=O)[C@H]([C@@H](C)O)NC(=O)[C@H](CCN)NC(=O)[C@H](CCN)NC(=O)[C@H](CC(C)C)NC(=O)[C@@H](Cc2ccccc2)NC(=O)[C@H](CCN)NC1=O)[C@@H](C)O [Compound 31, (S)-6-methyloctanoyl-Dab-Thr-D-Dap-ring(4-10)[Dab-Dab-D-Phe-Leu-Dab-Dab-Thr]] (X1-[Dab]T[dDap][Dab][Dab][dF]L[Dab][Dab]T; lactam 4-C)
- IC50 at 72 h [1]: 222 ± 10.2 µg/mL (≈ 186 µM)
- MIC [2]: 0.03 µg/mL (≈ 0.0252 µM)
- MIC [3]: 0.03 µg/mL (≈ 0.0252 µM)
- MIC [4]: 0.03 µg/mL (≈ 0.0252 µM)
- MIC [5]: 0.03 µg/mL (≈ 0.0252 µM)
- MIC [6]: 0.03 µg/mL (≈ 0.0252 µM)
- MIC [7]: 0.03 µg/mL (≈ 0.0252 µM)
- MIC [8]: 0.03 µg/mL (≈ 0.0252 µM)
- MIC [9]: 0.25 µg/mL (≈ 0.21 µM)

Compound: CC[C@H](C)CCCCC(=O)N[C@@H](CCN)C(=O)N[C@H](C(=O)N[C@H](CCCN)C(=O)N[C@H]1CCNC(=O)[C@H]([C@@H](C)O)NC(=O)[C@H](CCN)NC(=O)[C@H](CCN)NC(=O)[C@H](CC(C)C)NC(=O)[C@@H](Cc2ccccc2)NC(=O)[C@H](CCN)NC1=O)[C@@H](C)O [Compound 41, (S)-6-methyloctanoyl-Dab-Thr-D-Orn-ring(4-10)[Dab-Dab-D-Phe-Leu-Dab-Dab-Thr]] (X1-[Dab]T[dOrn][Dab][Dab][dF]L[Dab][Dab]T; lactam 4-C)
- IC50 at 72 h [1]: 259 ± 7.8 µg/mL (≈ 212 µM)
- MIC [2]: 0.03 µg/mL (≈ 0.0246 µM)
- MIC [3]: 0.06 µg/mL (≈ 0.0493 µM)
- MIC [4]: 0.125 µg/mL (≈ 0.103 µM)
- MIC [5]: 0.125 µg/mL (≈ 0.103 µM)
- MIC [6]: 0.03 µg/mL (≈ 0.0246 µM)
- MIC [7]: 0.25 µg/mL (≈ 0.205 µM)
- MIC [8]: 0.06 µg/mL (≈ 0.0493 µM)
- MIC [9]: 1 µg/mL (≈ 0.821 µM)

Compound: CCCCCCCCC(=O)N[C@@H](CCN)C(=O)N[C@H](C(=O)N[C@@H](CCCN)C(=O)N[C@H]1CCNC(=O)[C@H]([C@@H](C)O)NC(=O)[C@H](CCN)NC(=O)[C@H](CCN)NC(=O)[C@H](CC(C)C)NC(=O)[C@@H](Cc2ccccc2)NC(=O)[C@H](CCN)NC1=O)[C@@H](C)O [Compound 50, Nonanoyl-Dab-Thr-Orn-ring(4-10)[Dab-Dab-D-Phe-Leu-Dab-Dab-Thr]] (Nonanoyl-[Dab]T[Orn][Dab][Dab][dF]L[Dab][Dab]T; lactam 4-C)
- IC50 at 72 h [1]: 150 ± 5.2 µg/mL (≈ 123 µM)
- MIC [2]: 0.06 µg/mL (≈ 0.0493 µM)
- MIC [3]: 0.03 µg/mL (≈ 0.0246 µM)
- MIC [4]: 0.125 µg/mL (≈ 0.103 µM)
- MIC [5]: 0.03 µg/mL (≈ 0.0246 µM)
- MIC [6]: 0.06 µg/mL (≈ 0.0493 µM)
- MIC [7]: 0.03 µg/mL (≈ 0.0246 µM)
- MIC [8]: 0.06 µg/mL (≈ 0.0493 µM)
- MIC [9]: 0.5 µg/mL (≈ 0.411 µM)

Compound: CC(C)CCCCC(=O)N[C@@H](CCN)C(=O)N[C@H](C(=O)N[C@H](CO)C(=O)N[C@H]1CCNC(=O)[C@H]([C@@H](C)O)NC(=O)[C@H](CCCN)NC(=O)[C@H](CCN)NC(=O)[C@H]([C@@H](C)O)NC(=O)[C@@H](Cc2ccccc2)NC(=O)[C@H](CCN)NC1=O)[C@@H](C)O [Compound 87, 6-methylheptanoyl-Dab-Thr-D-Ser-ring(4-10)[Dab-Dab-D-Phe-Thr-Dab-Orn-Thr]] ({Heptanoyl(6-Me)}-[Dab]T[dS][Dab][Dab][dF]T[Dab][Orn]T; lactam 4-C)
- IC50 at 72 h [1]: > 500 µg/mL
- MIC [2]: 0.03 µg/mL (≈ 0.0255 µM)
- MIC [3]: 0.25 µg/mL (≈ 0.212 µM)
- MIC [4]: 0.06 µg/mL (≈ 0.0509 µM)
- MIC [5]: 0.5 µg/mL (≈ 0.424 µM)
- MIC [6]: 0.03 µg/mL (≈ 0.0255 µM)
- MIC [7]: >64 µg/mL
- MIC [8]: ≤0.03 µg/mL
- MIC [9]: 64 µg/mL (≈ 54.3 µM)

Compound: CCCCCCC(=O)N[C@@H](CCN)C(=O)N[C@H](C(=O)N[C@H](CCCN)C(=O)N[C@H]1CCNC(=O)[C@H]([C@@H](C)O)NC(=O)[C@H](CCN)NC(=O)[C@H](CCN)NC(=O)[C@H](CC(C)C)NC(=O)[C@@H](Cc2ccccc2)NC(=O)[C@H](CCN)NC1=O)[C@@H](C)O [Compound 44, Heptanoyl-Dab-Thr-D-Orn-ring(4-10)[Dab-Dab-D-Phe-Leu-Dab-Dab-Thr]] (Heptanoyl-[Dab]T[dOrn][Dab][Dab][dF]L[Dab][Dab]T; lactam 4-C)
- IC50 at 72 h [1]: 308 ± 9.7 µg/mL (≈ 259 µM)
- MIC [2]: 0.06 µg/mL (≈ 0.0504 µM)
- MIC [3]: 0.06 µg/mL (≈ 0.0504 µM)
- MIC [4]: 0.125 µg/mL (≈ 0.105 µM)
- MIC [5]: 0.125 µg/mL (≈ 0.105 µM)
- MIC [6]: 0.06 µg/mL (≈ 0.0504 µM)
- MIC [7]: 0.5 µg/mL (≈ 0.42 µM)
- MIC [8]: 0.06 µg/mL (≈ 0.0504 µM)
- MIC [9]: 2 µg/mL (≈ 1.68 µM)
